The term EC50 denotes the midpoint of the concentration-response curve.

Structures are written as SMILES. Like-named read-outs stand apart in the source and are kept apart here.

The source of these data is patent US20230287138A1, “PROTEIN-DRUG CONJUGATES COMPRISING CAMPTOTHECIN ANALOGS AND METHODS OF USE THEREOF” (Regneron Pharmaceuticals, Inc., priority 2022, published 2023).

One test concerns SK-BR-3 cells. Put plainly: In vitro cytotoxicity assay in SK-BR-3 cells (CellTiter-Glo 2.0). The format is cell-based, human. The note with it: for EC50: Homo sapiens. Here is the method: To test the ability of anti-Her2 drug conjugates (ADCs) of the present disclosure (see Table 5) to kill human cell lines, an in vitro cytotoxicity assay was performed. In vitro cytotoxicity of the ADCs, isotype control ADCs, and reference free payloads were evaluated using the CellTiter-Glo 2.0 Assay Kit (Promega, Cat #G9243), in which the quantity of ATP present is used to determine the number of viable cells in culture.
The last well in each dilution series (untreated wells) served as blank controls containing only the media (ADCs) or media plus 0.2% DMSO (payloads) and was plotted as a continuation of the 3-fold serial dilution. Six days later, 100 μL of CellTiter Glo 2.0 was added to each well, plates were mixed for 2 minutes on an orbital shaker, and plates were incubated at room temperature for 10 minutes. Relative light units (RLUs) were measured on an Envision luminometer (PerkinElmer), and cell viability was expressed as a percentage of the untreated (100% viable) cells. IC50 values were determined using a four-parameter logistic equation over a 10-point dose response curve (GraphPad Prism). The maximum % kill was also determined for each test article as follows: 100−minimum percent viability.

The next test has as its system HCT-15. Put plainly: HCT-15 data of payloads and linker-payloads (EC50, with or without verapamil). The format is cell-based. Particulars: payload.
The mark [1] stands for this setting: Homo sapiens, HCT-15 cells, no verapamil, read-out: HCT-15 EC50.
Where [2] appears, read: HCT-15 cells plus verapamil, read-out: HCT-15 + verapamil EC50.

Turning to `CC[C@@]1(O)C(=O)OCc2c1cc1n(c2=O)Cc2c-1nc1cc(F)c(C)c3c1c2[C@@H](N)CC3` [Exatecan], the EC50 in the test with SK-BR-3 cells (144 h, Table 8, SK-BR-3, six days, concentrations corrected for DAR (effective payload concentration), read-out: SKBR3 EC50) was found to be 0.516 nM; in the test with SK-BR-3 cells (SK-BR-3 cells, read-out: EC50 value) it was 0.516 nM. In the test with SK-BR-3 cells (SK-BR-3 cells, 100 − minimum percent viability), the maximum % kill is reported as about 95%.
For the compound `CCc1c2c(nc3ccc(OC)cc13)-c1cc3c(c(=O)n1C2)COC(=O)[C@]3(O)CC` [P17, (19S)-10,19-Diethyl-19-hydroxy-7-methoxy-17-oxa-3,13-diazapentacyclo[11.8.0.0^2,^11.0^4,^9.0^15,^20]henicosa-1(21),2,4,6,8,10,15(20)-heptaene-14,18-dione], the EC50 in the test with HCT-15 (setting [1]) turned out to be 1.59 nM; in the test with HCT-15 (setting [2]) it was 1.44 nM.
For `CCc1c2c(nc3ccc(OC)cc13)-c1cc([C@@](O)(CC)C(=O)NCCN)c(COC(C)=O)c(=O)n1C2` [P18, {7-[(1 S)-1-[(2-Aminoethyl)carbamoyl]-1-hydroxypropyl]-12-ethyl-2-methoxy-9-oxo-9H,11H-indolizino[1,2-b]quinolin-8-yl}methyl acetate], in that order: 32.5 nM and 32.8 nM.
For `CC[C@@]1(O)C(=O)OCc2c1cc1n(c2=O)Cc2c-1nc1ccc(OC)cc1c2CO` [P20, (19S)-19-Ethyl-19-hydroxy-10-(hydroxymethyl)-7-methoxy-17-oxa-3,13-diazapentacyclo[11.8.0.0^2,^11.0^4,^9.0^15,^20]henicosa-1(21),2,4,6,8,10,15(20)-heptaene-14,18-dione], in that order: 3.69 nM and 2.4 nM.
The like results for `CC[C@@]1(O)C(=O)OCc2c1cc1n(c2=O)Cc2c-1nc1ccc(OC)cc1c2CN` [P22, (19S)-10-(Aminomethyl)-19-ethyl-19-hydroxy-7-methoxy-17-oxa-3,13-diazapentacyclo[11.8.0.0^2,^11.0^4,^9.0^15,^20]henicosa-1(21),2,4,6,8,10,15(20)-heptaene-14,18-dione] were, in that order, 31.9 nM and 40.5 nM.
Take `CC[C@@]1(O)C(=O)OCc2c1cc1n(c2=O)Cc2c-1nc1ccc(OC)cc1c2CNCCCN=[N+]=[N-]` [P23, (S)-11-(((3-azidopropyl)amino)methyl)-4-ethyl-4-hydroxy-9-methoxy-1,12-dihydro-14H-pyrano[3′,4′:6,7]indolizino[1,2-b]quinoline-3,14(4H)-dione]: the EC50 in the test on HCT-15 (setting [1]) came to 36.7 nM.
Still for that read-out and setting: the result for `C#CCNCc1c2c(nc3ccc(OC)cc13)-c1cc3c(c(=O)n1C2)COC(=O)[C@]3(O)CC` [P24, (S)-4-ethyl-4-hydroxy-9-methoxy-11-((prop-2-yn-1-ylamino)methyl)-1,12-dihydro-14H-pyrano[3′,4′:6,7]indolizino[1,2-b]quinoline-3,14(4H)-dione] reads 13.5 nM; that for `CC[C@@]1(O)C(=O)OCc2c1cc1n(c2=O)Cc2c-1nc1ccc(OC)cc1c2CN(C)Cc1ccc(OC)cc1` [P25, (S)-4-ethyl-4-hydroxy-9-methoxy-11-(((4-methoxybenzyl)(methyl)amino)methyl)-1,12-dihydro-14H-pyrano[3′,4′:6,7]indolizino[1,2-b]quinoline-3,14(4H)-dione], 46.8 nM; that for `CC[C@@]1(O)C(=O)OCc2c1cc1n(c2=O)Cc2c-1nc1ccc(OC)cc1c2CNCc1ccccc1` [P26, (S)-11-((benzylamino)methyl)-4-ethyl-4-hydroxy-9-methoxy-1,12-dihydro-14H-pyrano[3′,4′:6,7]indolizino[1,2-b]quinoline-3,14(4H)-dione], 51.9 nM.
Regarding `CC[C@@]1(O)C(=O)OCc2c1cc1n(c2=O)Cc2c-1nc1ccc(OC)cc1c2Cn1nnc2c1CCCCCC2OCC(=O)O` (stereo partly drawn) [P27, 2-((1-(((S)-4-ethyl-4-hydroxy-9-methoxy-3,14-dioxo-3,4,12,14-tetrahydro-1H-pyrano[3′,4′:6,7]indolizino[1,2-b]quinolin-11-yl)methyl)-4,5,6,7,8,9-hexahydro-1H-cycloocta[d][1,2,3]triazol-4-yl)oxy)acetic acid], the half-maximal effective concentration (EC50) with HCT-15 (setting [1]) was found to be 78.8 nM.
As to `CC[C@@]1(O)C(=O)OCc2c1cc1n(c2=O)Cc2c-1nc1ccc(OC)cc1c2Cn1cc(Cc2ccccc2)nn1` [P28, (S)-11-((4-benzyl-1H-1,2,3-triazol-1-yl)methyl)-4-ethyl-4-hydroxy-9-methoxy-1,12-dihydro-14H-pyrano[3′,4′:6,7]indolizino[1,2-b]quinoline-3,14(4H)-dione], the EC50 in the test on HCT-15 (setting [1]) came to 34.2 nM.
